Results on 7 compounds are retold here after patent US5252566A, “Antithrombotic agents” (priority 1992, dated 1993).

Structures can show the parent of a compound that is named as a salt. Where a SMILES comes first, the peptide text is derived from it. [ ]: non-standard residue; d: D form. dTic = O=C(O)[C@H]1Cc2ccccc2CN1; Aze = O=C(O)[C@@H]1CCN1

The target of the first experiment is T1, thrombin (Bos taurus, UniProt P00735).
T1 construct: purchased
The experiment can be described thus: biochemical.
Details: not given
The procedure:
The assay was carried out in 50 μl buffer (0.03M Tris, 0.15M NaCl, pH 7.4) with 25 μl of thrombin solution (0.21 mg/ml of thrombostat powder in 0.06M Tris, 0.3M NaCl, pH 7.4) and 150 μl of an aqueous solution of the chromogenic substrate at a concentration of 0.25 mg/ml. Solutions of test compound (25 μl) at various concentrations were added. Rates of hydrolysis of the substrate were measured by monitoring the reactions at 405 nm for the release of p-nitroaniline. Standard curves were constructed by plotting free thrombin concentration against hydrolysis rate. […] The amount of free inhibitor in each assay was calculated by subtracting the number of moles of bound thrombin from the number of moles of added inhibitor (test compound).
The Kass value is the hypothetical equilibrium constant for the reaction between thrombin and the test compound (I). [drawing 23]
Kass was calculated for a range of concentrations of test compounds and the mean value is reported in units of liter per mole.
As for `CC(C)(C)OC(=O)NC(C)(C(=O)N1CC[C@H]1C(=O)N[C@H](C=O)CCCNC(=N)N)c1ccccc1` (mixture of isomers) [Boc--DL--Phg(α-CH3)--Azt--Arg--H, N--Boc--DL--Phg(α-CH3)--Azt--Arg--H], the Kd was 90.9 nM.

`CC(C)(C)OC(=O)N[C@@](C)(C(=O)N1CC[C@H]1C(=O)N[C@H](C=O)CCCN=C(N)N)c1ccccc1` [Boc--D--Phg(α-CH3)--Azt--Arg--H, N--Boc--D--Phg(α-CH3)--Azt--Arg--H] had a Kd of 16.4 nM.

The same experiment, now with this note: Table 1; mean over a range of concentrations of test compound; pH 7.4; read-out: Kass × 10^6 (Thrombin Inhibition Levels) (converted).
Consider `C[C@](NC(=O)C(F)(F)F)(C(=O)N1CC[C@H]1C(=O)N[C@H](C=O)CCCN=C(N)N)c1ccccc1` [TFA--D--Phg(α-Me)--Azt--Arg--H, N-[N-trifluoracetyl-D-(α-methyl)phenylglycyl)-L-azetidinyl-L-argininealdehyde hydrochloride], for which the Kd is 7.87 nM.

For `CC(=O)N[C@@](C)(C(=O)N1CC[C@H]1C(=O)N[C@H](C=O)CCCNC(=N)N)c1ccccc1` [Ac--D--Phg(α-CH3)--Azt--Arg--H, N--Acetyl--D--Phg(α-CH3)--Azt--Arg--H], the Kd was 14.3 nM.

As for `CC(=O)NC(C)(C(=O)N1CC[C@H]1C(=O)N[C@H](C=O)CCCNC(=N)N)c1ccccc1` (mixture of isomers) [Ac--Phg(α-CH3)--Azt--Arg--H, N--Acetyl--DL--Phg(α-CH3)--Azt--Arg--H], the Kd was 66.7 nM.

Consider `N=C(N)NCCC[C@@H](C=O)NC(=O)[C@@H]1CCN1C(=O)C1NCCc2ccccc21` (mixture of isomers) [DL-1-Tiq--Azt--Arg--H, DL-1,2,3,4-tetrahydroisoquinolin-1-oyl-L-azetidinyl-L-arginine aldehyde sulfate], for which the Kd is 37 nM.

For `N=C(N)NCCC[C@@H](C=O)NC(=O)[C@@H]1CCN1C(=O)[C@H]1Cc2ccccc2CN1` [D-3-Tiq--Azt--Arg--H, D-1,2,3,4-Tetrahydroisoquinolin-3-oyl-L-azetidin-2-oyl-L-arginine aldehyde sulfate] (H-[dTic]-[Aze]-Arg-aldehyde), the Kd was 28.6 nM.
